Laboratory results: patent publication US9187497B2, “Substituted pyrido[3,2-e]pyrrolo[1,2-a]pyrazines as inhibitors of poly(ADP-ribose)polymerase (PARP)” (Takeda Phamaceutical Company Limited, priority 2009, dated 2015)

Assays:
Jurkat cell line = assay: PARP cellular chemopotentiation assay (MTS cell viability with and without TMZ); type: cell-based; settings: ratio of EC50 for inhibition of cell viability without and with 100 μM TMZ; Jurkat cells, 96 hours of treatment
Method: Potentiation Factor (PF50) Determination from PARP Cellular Chemopotentiation Assay
Jurkat cell line was maintained according to the supplier (American Type Culture Collection (Rockville, Md.)). Cells were seeded in 96-well tissue culture microplates at 10,000 cells per well and cultured for 24 hours prior to addition of compounds, TMZ (Temozolomide) or DMSO (dimethylsulfoxide) vehicle. After 96 hours of treatment, the conversion of MTS ([3-(4,5-dimethylthiazol-2-yl)-5-(3-carboxymethoxyphenyl)-2-(4-sulfophenyl)-2H-tetrazolium, inner salt], Promega, Madison, Wis.) by metabolically active cells was determined through measuring the OD490 nm with a Spectramax microplate reader (Molecular Devices, San Diego, Calif.). To generate concentration-response curves, cells were treated in duplicate with a range of serial compound dilutions (final DMSO concentration was 0.5%) in the absence or presence of 100 μM TMZ chemoreagent. The percentage of viable cells per well was calculated by correction for background and normalizing against DMSO-treated cells. EC50 values for inhibition of cell viability were calculated using XLfit4 MicroSoft Excel curve-fitting software. Chemopotentiation factor PF50 was calculated as the ratio of EC50 values of cells co-treated without and with TMZ, respectively.

PARP = target: T1, PARP (Homo sapiens, UniProt P09874); assay: PARP ELISA colorimetric assay of inhibition of PARP catalytic activity (IC50); type: biochemical; settings: pIC50=-log(IC50), IC50 in molar concentration; ELISA-based PARP kit, 10 minutes of catalysis
T1 construct: purchased Trevigen 4684-096-01 (enzyme); kit 4684-096-K HT
Method: Inhibition Constant (IC50) from PARP ELISA
Inhibition of PARP catalytic activity was determined by use of an ELISA-based colorimetric PARP/Apoptosis Assay kit (part number 4684-096-K HT, Trevigen). To each histone coated well in the 96-well plate supplied by the manufacturer (part number 4677-096-P) is added 39 μl of PARP buffer (part number 4671-096-02) and 1 μl of test compound dissolved in DMSO (diluted serially 3-fold 11 times). After mixing, 5 μl of 0.1 nM PARP (part number 4684-096-01) is added and the solution allowed to stand at ambient temperature for 10 minutes. PARP catalysis is initiated with the addition of 5 μl of 100 μM β-nicotinamide adenine dinucleotide (NAD+) (part number 4684-096-02) with activated DNA (part number 4671-096-06). After 10 minutes of catalysis the reaction is quenched by solvent aspiration followed by irrigation of the assay wells 4 times with phosphate buffered saline (PBS) containing 0.1% t-Octylphenoxypolyethoxyethanol (Triton® X-100). Mouse Anti-poly ADP ribose (PAR) monoclonal antibody, goat antimouse immunoglobulin G (IgG)-horse radish peroxidase (HRP) conjugate and HRP substrate are added according to the manufacture's specifications to generate a colorimetric signal proportional to PARP catalytic activity. An IC50 for the test compound is calculated from the equation Absorbance=(Amax−background)/(1+([cmpd]/IC50)^n)+background fit to the 12 point test compound concentration gradient via nonlinear least squares.

T1 sequence (P09874 whole entry): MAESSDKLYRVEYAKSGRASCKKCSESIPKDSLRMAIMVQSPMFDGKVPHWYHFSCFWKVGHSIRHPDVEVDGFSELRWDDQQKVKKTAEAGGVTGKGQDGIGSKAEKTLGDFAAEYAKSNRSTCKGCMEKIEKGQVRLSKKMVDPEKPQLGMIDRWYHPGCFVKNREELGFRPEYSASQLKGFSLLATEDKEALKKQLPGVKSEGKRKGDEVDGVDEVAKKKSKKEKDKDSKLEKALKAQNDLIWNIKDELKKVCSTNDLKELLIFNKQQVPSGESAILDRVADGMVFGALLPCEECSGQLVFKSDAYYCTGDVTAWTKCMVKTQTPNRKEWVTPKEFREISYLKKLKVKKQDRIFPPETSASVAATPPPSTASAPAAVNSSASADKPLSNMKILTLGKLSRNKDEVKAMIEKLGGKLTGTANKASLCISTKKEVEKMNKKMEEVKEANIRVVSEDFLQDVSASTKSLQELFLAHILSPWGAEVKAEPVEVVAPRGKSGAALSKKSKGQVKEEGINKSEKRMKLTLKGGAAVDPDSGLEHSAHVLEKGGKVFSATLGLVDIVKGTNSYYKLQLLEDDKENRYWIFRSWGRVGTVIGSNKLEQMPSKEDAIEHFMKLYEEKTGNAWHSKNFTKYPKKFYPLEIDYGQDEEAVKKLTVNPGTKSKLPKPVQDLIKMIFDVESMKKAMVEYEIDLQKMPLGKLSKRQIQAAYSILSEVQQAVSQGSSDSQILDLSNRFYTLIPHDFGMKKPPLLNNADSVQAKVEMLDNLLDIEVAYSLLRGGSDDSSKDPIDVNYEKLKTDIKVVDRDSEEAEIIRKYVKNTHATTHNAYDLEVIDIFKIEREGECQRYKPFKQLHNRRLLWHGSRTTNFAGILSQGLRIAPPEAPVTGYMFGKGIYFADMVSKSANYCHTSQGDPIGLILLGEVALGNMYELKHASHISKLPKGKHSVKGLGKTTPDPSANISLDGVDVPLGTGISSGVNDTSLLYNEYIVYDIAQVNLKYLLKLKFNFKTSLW

IC50 (PARP) [nM] | SMILES | PF50 (Jurkat cell line)
≥ 50.1 | O=C1Nc2cc(CN3CCN(c4ccc(Br)cc4)CC3)cnc2N2CCC[C@@H]12 [Compound 37, (S)-3-((4-(4-bromophenyl)piperazin-1-yl)methyl)-6a,7,8,9-tetrahydropyrido[3,2-e]pyrrolo[1,2-a]pyrazin-6(5H)-one] | >2000
≤ 12.6 | O=C1Nc2cc(CN3CCN(c4ccc(Cl)cc4)CC3)cnc2N2CCCC[C@@H]12 [Compound 69, (S)-3-((4-(4-chlorophenyl)piperazin-1-yl)methyl)-7,8,9,10-tetrahydro-5H-dipyrido[1,2-a:3′,2′-e]pyrazin-6(6aH)-one] | >10
≤ 12.6 | CNC(=O)c1ccc(N2CCN(Cc3cnc4c(c3)NC(=O)[C@@H]3CCCCN43)CC2)cc1 [Compound 74, (S)—N-methyl-4-(4-((6-oxo-6,6a,7,8,9,10-hexahydro-5H-dipyrido[1,2-a:3′,2′-e]pyrazin-3-yl)methyl)piperazin-1-yl)benzamide] | >10
≥ 50.1 | Cc1cscc1-c1ccc(N2CCN(Cc3cnc4c(c3)NC(=O)[C@@H]3CCCCN43)CC2)cc1 [Compound 161, (S)-3-((4-(4-(4-methylthiophen-3-yl)phenyl)piperazin-1-yl)methyl)-7,8,9,10-tetrahydro-5H-dipyrido[1,2-a:3′,2′-e]pyrazin-6(6aH)-one] | 
≥ 50.1 | Cc1ccsc1-c1ccc(N2CCN(Cc3cnc4c(c3)NC(=O)[C@@H]3CCCCN43)CC2)cc1 [Compound 162, (S)-3-((4-(4-(3-methylthiophen-2-yl)phenyl)piperazin-1-yl)methyl)-7,8,9,10-tetrahydro-5H-dipyrido[1,2-a:3′,2′-e]pyrazin-6(6aH)-one] | 
≥ 50.1 | O=C1CCC=C1c1ccc(N2CCN(Cc3cnc4c(c3)NC(=O)[C@@H]3CCCCN43)CC2)cc1 [Compound 163, (S)-3-((4-(4-(5-oxocyclopent-1-enyl)phenyl)piperazin-1-yl)methyl)-7,8,9,10-tetrahydro-5H-dipyrido[1,2-a:3′,2′-e]pyrazin-6(6aH)-one] | 
15.8 to 39.8 | Cc1ccc(-c2ccc(N3CCN(Cc4cnc5c(c4)NC(=O)[C@@H]4CCCCN54)CC3)cc2)cn1 [Compound 164, (S)-3-((4-(4-(6-methylpyridin-3-yl)phenyl)piperazin-1-yl)methyl)-7,8,9,10-tetrahydro-5H-dipyrido[1,2-a:3′,2′-e]pyrazin-6(6aH)-one] | 
15.8 to 39.8 | Cn1cc(-c2ccc(N3CCN(Cc4cnc5c(c4)NC(=O)[C@@H]4CCCCN54)CC3)cc2)cn1 [Compound 165, (S)-3-((4-(4-(1-methyl-1H-pyrazol-4-yl)phenyl)piperazin-1-yl)methyl)-7,8,9,10-tetrahydro-5H-dipyrido[1,2-a:3′,2′-e]pyrazin-6(6aH)-one] | 
15.8 to 39.8 | Cc1ccnc(-c2ccc(N3CCN(Cc4cnc5c(c4)NC(=O)[C@@H]4CCCCN54)CC3)cc2)c1 [Compound 166, (S)-3-((4-(4-(4-methylpyridin-2-yl)phenyl)piperazin-1-yl)methyl)-7,8,9,10-tetrahydro-5H-dipyrido[1,2-a:3′,2′-e]pyrazin-6(6aH)-one] | 
15.8 to 39.8 | Cc1cc(-c2ccc(N3CCN(Cc4cnc5c(c4)NC(=O)[C@@H]4CCCCN54)CC3)cc2)ccn1 [Compound 167, (S)-3-((4-(4-(2-methylpyridin-4-yl)phenyl)piperazin-1-yl)methyl)-7,8,9,10-tetrahydro-5H-dipyrido[1,2-a:3′,2′-e]pyrazin-6(6aH)-one] | 
15.8 to 39.8 | O=C1Nc2cc(CN3CCN(c4ccc(-c5cnccn5)cc4)CC3)cnc2N2CCCC[C@@H]12 [Compound 168, (S)-3-((4-(4-(pyrazin-2-yl)phenyl)piperazin-1-yl)methyl)-7,8,9,10-tetrahydro-5H-dipyrido[1,2-a:3′,2′-e]pyrazin-6(6aH)-one] | 
≥ 50.1 | COc1ncccc1-c1ccc(N2CCN(Cc3cnc4c(c3)NC(=O)[C@@H]3CCCCN43)CC2)cc1 [Compound 169, (S)-3-((4-(4-(2-methoxypyridin-3-yl)phenyl)piperazin-1-yl)methyl)-7,8,9,10-tetrahydro-5H-dipyrido[1,2-a:3′,2′-e]pyrazin-6(6aH)-one] | 

Continued, molecule first:

SMILES | IC50 (PARP) [nM] | PF50 (Jurkat cell line)
CNC(=O)c1ccc(N2CCN(Cc3cnc4c(c3)NC(=O)[C@@H]3CCCN43)CC2)nc1 [Compound 6, (S)—N-methyl-6-(4-((6-oxo-5,6,6a,7,8,9-hexahydropyrido[3,2-e]pyrrolo[1,2-a]pyrazin-3-yl)methyl)piperazin-1-yl)nicotinamide] | ≤ 12.6 | >10
CNC(=O)c1ccc(N2CCN(Cc3cnc4c(c3)NC(=O)[C@@H]3CCCN43)CC2)cc1 [Compound 11, (S)—N-methyl-4-(4-((6-oxo-5,6,6a,7,8,9-hexahydropyrido[3,2-e]pyrrolo[1,2-a]pyrazin-3-yl)methyl)piperazin-1-yl)benzamide] | 15.8 to 39.8 | >10
CC(C)NC(=O)c1ccc(N2CCN(Cc3cnc4c(c3)NC(=O)[C@@H]3CCCN43)CC2)cc1 [Compound 12, (S)—N-isopropyl-4-(4-((6-oxo-5,6,6a,7,8,9-hexahydropyrido[3,2-e]pyrrolo[1,2-a]pyrazin-3-yl)methyl)piperazin-1-yl)benzamide] | 15.8 to 39.8 | >10
O=C1Nc2cc(CN3CCN(c4ccc(F)cc4)CC3)cnc2N2CCC[C@@H]12 [Compound 24, (S)-3-((4-(4-fluorophenyl)piperazin-1-yl)methyl)-6a,7,8,9-tetrahydropyrido[3,2-e]pyrrolo[1,2-a]pyrazin-6(5H)-one] | 15.8 to 39.8 | >5000
Cc1cccc(N2CCN(Cc3cnc4c(c3)NC(=O)[C@@H]3CCCN43)CC2)c1 [Compound 29, (S)-3-((4-m-tolylpiperazin-1-yl)methyl)-6a,7,8,9-tetrahydropyrido[3,2-e]pyrrolo[1,2-a]pyrazin-6(5H)-one] | ≥ 50.1 | >500
O=C1Nc2cc(CN3CCN(c4ccc(Cl)cn4)CC3)cnc2N2CCC[C@@H]12 [Compound 42, (S)-3-((4-(5-chloropyridin-2-yl)piperazin-1-yl)methyl)-6a,7,8,9-tetrahydropyrido[3,2-e]pyrrolo[1,2-a]pyrazin-6(5H)-one] | ≥ 50.1 | >500
COC(=O)c1ccc(N2CCN(Cc3cnc4c(c3)NC(=O)[C@@H]3CCCN43)CC2)cc1 [Compound 45, (S)-methyl 4-(4-((6-oxo-5,6,6a,7,8,9-hexahydropyrido[3,2-e]pyrrolo[1,2-a]pyrazin-3-yl)methyl)piperazin-1-yl)benzoate] | 15.8 to 39.8 | >10
O=C1Nc2cc(CN3CCN(c4ccc(Cl)c(F)c4)CC3)cnc2N2CCC[C@@H]12 [Compound 47, (S)-3-((4-(4-chloro-3-fluorophenyl)piperazin-1-yl)methyl)-6a,7,8,9-tetrahydropyrido[3,2-e]pyrrolo[1,2-a]pyrazin-6(5H)-one] | ≥ 50.1 | >10
O=C1Nc2cc(CN3CC=C(c4ccc(Cl)cc4)CC3)cnc2N2CCCC[C@@H]12 [Compound 68, (S)-3-((4-(4-chlorophenyl)-5,6-dihydropyridin-1(2H)-yl)methyl)-7,8,9,10-tetrahydro-5H-dipyrido[1,2-a:3′,2′-e]pyrazin-6(6aH)-one] | ≤ 12.6 | >5000
O=C1Nc2cc(CN3CCC(c4ccc(Cl)cc4)CC3)cnc2N2CCCC[C@@H]12 [Compound 70, (S)-3-((4-(4-chlorophenyl)piperidin-1-yl)methyl)-7,8,9,10-tetrahydro-5H-dipyrido[1,2-a:3′,2′-e]pyrazin-6(6aH)-one] | ≥ 50.1 | ≧0
N#Cc1ccc(N2CCN(Cc3cnc4c(c3)NC(=O)[C@@H]3CCCCN43)CC2)nc1 [Compound 72, (S)-6-(4-((6-oxo-6,6a,7,8,9,10-hexahydro-5H-dipyrido[1,2-a:3′,2′-e]pyrazin-3-yl)methyl)piperazin-1-yl)nicotinonitrile] | ≤ 12.6 | >500
O=C(NC1CC1)c1ccc(N2CCN(Cc3cnc4c(c3)NC(=O)[C@@H]3CCCCN43)CC2)cc1 [Compound 75, (S)—N-cyclopropyl-4-(4-((6-oxo-6,6a,7,8,9,10-hexahydro-5H-dipyrido[1,2-a:3′,2′-e]pyrazin-3-yl)methyl)piperazin-1-yl)benzamide] | 15.8 to 39.8 | >500
